Assay results as given in BindingDB's records for patent US20250059213 (Pretzel Therapeutics, 2025).

Molecular target: T1, Lon protease homolog, mitochondrial (Homo sapiens, UniProt P36776)
T1 sequence (P36776 whole entry): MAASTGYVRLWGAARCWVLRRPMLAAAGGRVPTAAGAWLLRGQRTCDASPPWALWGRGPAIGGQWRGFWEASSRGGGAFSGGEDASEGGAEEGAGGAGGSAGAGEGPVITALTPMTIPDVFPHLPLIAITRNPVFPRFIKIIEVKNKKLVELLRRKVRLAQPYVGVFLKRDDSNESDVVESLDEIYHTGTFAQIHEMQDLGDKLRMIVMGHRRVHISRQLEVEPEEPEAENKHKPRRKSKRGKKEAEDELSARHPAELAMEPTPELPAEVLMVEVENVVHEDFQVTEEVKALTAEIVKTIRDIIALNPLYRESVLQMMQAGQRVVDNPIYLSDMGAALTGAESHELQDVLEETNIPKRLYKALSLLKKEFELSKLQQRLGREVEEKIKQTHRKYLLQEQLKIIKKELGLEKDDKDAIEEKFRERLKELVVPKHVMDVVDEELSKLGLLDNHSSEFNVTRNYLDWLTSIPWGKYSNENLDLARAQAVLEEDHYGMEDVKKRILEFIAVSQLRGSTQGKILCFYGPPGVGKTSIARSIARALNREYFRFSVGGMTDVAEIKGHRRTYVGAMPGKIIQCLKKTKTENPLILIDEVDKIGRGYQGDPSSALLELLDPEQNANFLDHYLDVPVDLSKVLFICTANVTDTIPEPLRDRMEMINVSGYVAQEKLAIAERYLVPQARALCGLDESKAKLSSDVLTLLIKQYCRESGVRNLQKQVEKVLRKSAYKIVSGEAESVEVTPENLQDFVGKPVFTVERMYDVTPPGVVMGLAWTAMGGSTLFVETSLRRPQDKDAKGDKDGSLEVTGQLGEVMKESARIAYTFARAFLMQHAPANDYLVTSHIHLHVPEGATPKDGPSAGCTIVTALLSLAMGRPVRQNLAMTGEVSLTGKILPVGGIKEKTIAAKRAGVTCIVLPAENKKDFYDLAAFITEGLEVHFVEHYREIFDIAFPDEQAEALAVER
Test: FRET-Based Assay
Experimental: The LONP1-containing mix (10 μL) was incubated with the test compound for 15 min at 37° C. before adding the peptide-containing mix (5 μL). Solutions were dispensed using a small cassette-Multidrop Combi (Thermo Scientific).

IC50: < 50 nM
Structure (SMILES): COCC[C@@H](NC(=O)c1cnccn1)C(=O)N[C@@H](CCCc1ccccc1)B(O)O [US20250059213, Compound 13]
